Data on four compounds can be found in patent US20090076044A1, “VEGFR INHIBITORS CONTAINING A ZINC BINDING MOIETY” (priority 2007, published 2009).

The target of one assay is T1, human c-Kit (Homo sapiens, UniProt P10721).
T1 construct: human c-Kit (Thr544-Val976); purchased Cell Signaling Technologies; host or cells: baculovirus expression system
In words: c-Kit kinase assay (HTScan Receptor Kinase Assay Kit, DELFIA). Format: biochemical. To be noted: 200 μM ATP. Here is the method: (f) An In Vitro Assay which Determines the Ability of a Test Compound to Inhibit c-Kit Kinase.
The ability of compounds to inhibit c-Kit tyrosine kinase activity was assayed using HTScan™ Receptor Kinase Assay Kits (Cell Signaling Technologies, Danvers, Mass.). c-Kit tyrosine kinase is obtained in partially purified form from GST-kinase fusion protein which is produced using a baculovirus expression system from a construct expressing human c-Kit (Thr544-Val976) with an amino-terminal GST tag. The protein was purified by one-step affinity chromatography using glutathione-agarose. An anti-phosphotyrosine monoclonal antibody, P-Tyr-100, is used to detect phosphorylation of biotinylated substrate peptide KDR (Tyr996). Enzymatic activity was tested in 60 mM HEPES, 5 mM MgCl2 5 mM MnCl2 200 μM ATP, 1.25 mM DTT, 3 μM Na3VO4, 1.5 mM peptide, and 50 ng c-Kit. Bound antibody was detected using the DELFIA system (PerkinElmer, Wellesley, Mass.) consisting of DELFIA® Europium-labeled Anti-mouse IgG (PerkinElmer, #AD0124), DELFIA® Enhancement Solution (PerkinElmer, #1244-105), and a DELFIA® Streptavidin coated, 96-well Plate (PerkinElmer, AAAND-0005). Fluorescence was measured on a WALLAC Victor 2 plate reader and reported as relative fluorescence units (RFU). Data were plotted using GraphPad Prism (v4.0a) and IC50's were calculated using a sigmoidal dose response curve fitting algorithm.
Test compounds were dissolved in dimethylsulphoxide (DMSO) to give a 20 mM working stock concentration. Each assay was set up as follows: 100 μl of 10 mM ATP is added to 1.25 ml 6 mM substrate peptide. The mixture was diluted with dH20 to 2.5 ml to make 2×ATP/substrate cocktail ([ATP]=[…], [substrate]=3 mM). The enzyme was immediately transferred from −80° C. to ice. The enzyme was allowed to thaw on ice. The mixture was microcentrifuged briefly at 4° C. to bring liquid to the bottom of the vial and returned immediately to ice. 10 μl of DTT (1.25 mM) was added to 2.5 ml of 4× HTScan™ Tyrosine Kinase Buffer (240 mM HEPES pH 7.5, 20 mM MgCl2, 20 mM MnCl, 12 mM NaVO3) to make DTT/Kinase buffer. 1.25 ml of DTT/Kinase buffer was transferred to enzyme tube to make a 4× reaction cocktail ([enzyme]=4 ng/μL in 4× reaction cocktail). 12.5 μl of the 4× reaction cocktail was incubated with 12.5 μl/well of prediluted compound of interest (usually around 10 μM) for 5 minutes at room temperature. 25 μl of 2×ATP/substrate cocktail is added to 25 μl/well preincubated reaction cocktail/compound. The reaction plate was incubated at room temperature for 30 minutes. 50 μl/well Stop Buffer (50 mM EDTA, pH 8) was added to stop the reaction. […] 615 nm fluorescence emission is detected using an appropriate Time-Resolved Plate Reader.

For another assay, the target named is T2, human PDGFR-beta (Homo sapiens, UniProt P09619).
T2 construct: fragment (amino acids 558-1106) amino-terminally fused to 6-histidine; 6xHis (N); made in house
In words: PDGFR-beta radioisotope kinase assay. It is filed as biochemical. The conditions noted are these: 100 μM ATP; for IC50: read-out: PDGFRb IC50. On the procedure: (a) An In Vitro Assay which-Determines the Ability of a Test Compound to Inhibit a Receptor Tyrosine Kinase.
The ability of compounds to inhibit receptor kinase (VEGFR2 and PDGFR-beta) activity was assayed using standard radioisotope assay for kinase. […] The proteins were purified using Ni2+/NTA agarose affinity column to purity
For PDGFR-beta assay, p33 ATP tracers were incubated with purified recombinant PDGFR-beta kinase to monitor the enzyme activity. In this assay, reactions were carried out in the presence of 0.4 mg/ml PDGFR-beta kinase and 200 nM of Abl peptide substrate ([…]). The reaction was carried out at 30° C. for 120 minutes in a final assay condition contained 20 mM Tris-HCl, pH 7.5, 100 mM NaCl, 0.05 mM EDTA, 0.05% NP-40, 1 mM DTT 50% glycerol and 100 μM ATP. An equal volume of 25% TCA was added to stop the reaction and precipitate the labeled peptides. Precipitated proteins were trapped onto glass fiber B filterplates and excess unlabeled p33 ATP was washed off. The plates were allowed to air-dry prior to the addition of 30 uL/well of Packard Microscint 20. The amount of incorporated isotope was measured using a Perkin Elmer TopCount plate reader. Different concentrations of compounds were added to reaction to assess the activity of compounds to inhibit PDGF-beta kinase. IC50 was calculated using Prism software with sigmoidal dose-response curve fitting.

Some results are limits rather than exact numbers.

As usually defined, the IC50 is the concentration that gives 50% inhibition.

T1 sequence (P10721 544-976): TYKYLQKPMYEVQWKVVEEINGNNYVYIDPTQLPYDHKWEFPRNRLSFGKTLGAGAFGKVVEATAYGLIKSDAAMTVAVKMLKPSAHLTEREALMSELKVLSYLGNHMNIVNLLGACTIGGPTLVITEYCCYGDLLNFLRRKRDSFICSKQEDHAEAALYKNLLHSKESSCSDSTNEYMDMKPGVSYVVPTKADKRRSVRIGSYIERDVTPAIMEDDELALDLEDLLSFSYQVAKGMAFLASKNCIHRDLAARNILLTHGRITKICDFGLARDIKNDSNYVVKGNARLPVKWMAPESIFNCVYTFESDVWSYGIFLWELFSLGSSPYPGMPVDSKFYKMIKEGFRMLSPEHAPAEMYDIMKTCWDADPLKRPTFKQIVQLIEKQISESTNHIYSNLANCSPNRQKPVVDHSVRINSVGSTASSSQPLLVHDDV
T2 sequence (P09619 558-1106): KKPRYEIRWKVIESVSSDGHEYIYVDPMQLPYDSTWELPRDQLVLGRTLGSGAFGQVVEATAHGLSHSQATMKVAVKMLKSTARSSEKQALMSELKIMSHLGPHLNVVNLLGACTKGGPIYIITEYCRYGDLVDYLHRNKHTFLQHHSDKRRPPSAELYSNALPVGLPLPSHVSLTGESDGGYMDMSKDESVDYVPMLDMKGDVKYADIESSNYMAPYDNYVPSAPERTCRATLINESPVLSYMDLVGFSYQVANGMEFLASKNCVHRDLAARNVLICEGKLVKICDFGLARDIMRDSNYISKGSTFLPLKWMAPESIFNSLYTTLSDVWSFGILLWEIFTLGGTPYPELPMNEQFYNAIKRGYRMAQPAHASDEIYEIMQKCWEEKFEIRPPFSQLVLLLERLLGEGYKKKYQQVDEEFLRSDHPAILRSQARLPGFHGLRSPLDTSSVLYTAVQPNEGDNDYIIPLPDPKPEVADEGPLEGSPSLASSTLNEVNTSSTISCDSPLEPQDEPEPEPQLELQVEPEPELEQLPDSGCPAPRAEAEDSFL

On to `COc1cc2c(Nc3ccc4[nH]c(C)cc4c3F)ncnc2cc1OCCCCCCC(=O)NO` [Compound 14, 7-(4-(4-fluoro-2-methyl-1H-indol-5-ylamino)-6-methoxy-quinazolin-7-yloxy)-N-hydroxyheptanamide], for which the IC50 was 100 to 1000 nM against human c-Kit and > 10000 nM at human PDGFR-beta.
In the same order, the values of `Cc1cc2c(F)c(Nc3ncnc4cc(OCCCN5CCCC5)c(OCCCCCCC(=O)NO)cc34)ccc2[nH]1` [Compound 20, 7-(4-(4-Fluoro-2-methyl-1H-indol-5-ylamino)-7-(3-(pyrrolidin-1-yl)propoxy)quinazolin-6-yloxy)-N-hydroxyheptanamide] are 100 to 1000 nM and > 10000 nM.
Turning to `COc1cc2c(Nc3ccc4[nH]c(C)cc4c3F)ncnc2cc1OCCCCCC(=O)NO` [Compound 13, 6-(4-(4-fluoro-2-methyl-1H-indol-5-ylamino)-6-methoxyquinazolin-7-yloxy)-N-hydroxyhexanamide], the IC50 on human c-Kit is 100 to 1000 nM; at human PDGFR-beta, 1000 to 10000 nM.
For `COc1cc2c(Oc3ccc4[nH]c(C)cc4c3F)ncnc2cc1OCCCCCCC(=O)NO` [Compound 11, 7-(4-(4-fluoro-2-methyl-1H-indol-5-yloxy)-6-methoxyquinazolin-7-yloxy)-N-hydroxyheptanamide], the IC50 at human c-Kit was < 100 nM. Moreover, the “PDGFRb IC50” value at human PDGFR-beta is listed as “Inactive”.
